The values that follow come from patent US20030203969A1, “Pharmaceutically active aromatic guanylhydrazones” (priority 2000, published 2003).

The subject of this assay is EBV. Description: EBV replication in TPA-induced P3HR-1 cells (TaqMan PCR). In kind it is cell-based, Epstein-Barr virus. On the procedure: Human P3HR-1 cells are latently infected with EBV. Culturing these cells in the presence of phorbol ester induces a lytic infection cycle, resulting in stimulation of viral replication within the cells. Compound efficacy in this assay is determined using TaqMan PCR technology, and compound toxicity is measured by addition of Promega's Cell Titer Aqueous One Solution (metabolic dye).
1. P3HR-1 cells are counted by the trypan blue dye exclusion method, and the cell count/ml is determined. Cells are pelleted by centrifugation and washed once with PBS to minimize the basal level of virus released from untreated cells which spontaneously enter the lytic cycle and release virus.
2. Cells are resuspended in fresh media and adjusted to the appropriate cell density. Cells are then plated in the interior wells of 96-well round-bottom microtiter plates in a volume of 50 μl per well.
3. The phorbol ester TPA is added to appropriate wells in a volume of 50 μl per well to yield a final concentration of 15 ng/ml. Medium is added in place of TPA in three wells to serve as a negative control.
4. […]
5. A standard curve prepared from known copy numbers of DNA isolated from P3HR-1 cells and amplified is run with each plate in order to quantitate the DNA copy number in each original sample. The efficacy of the compound is determined by comparing DNA copy numbers from test wells with those of control wells.

With `CC(=NNC(=N)N)c1cc(NC(=O)CCCCCCCCC(=O)Nc2cc(C(C)=NNC(=N)N)cc(C(C)=NNC(=N)N)c2)cc(C(C)=NNC(=N)N)c1` [Compound 4, N,N′-bis (3,5-diacetylphenyl) decane diamide tetrakis (amidinohydrazone)], under “EBV, P3HR1 cells”, the Comments result was “Significant Activity”. This compound had an IC50 (EBV-infected P3HR1 cells, day 4) of 2300 nM.
